Results on 21 compounds are retold here after US11759462B2, “Spirocyclic compounds as tryptophan hydroxylase inhibitors” (priority 2013, dated 2023).

SMILES strings stand for the structures. pIC50: −log10 of the molar value.

The target in the first assay is T1, Recombinant human TPH1 (MBP tagged) (Homo sapiens, UniProt P17752).
T1 construct: cloning full length human TPH1 cDNA in to a bacterial pMAL-c5E expression vector; made in house; host or cells: E. coli BL21 (DE3)
T1 sequence (P17752 1-444): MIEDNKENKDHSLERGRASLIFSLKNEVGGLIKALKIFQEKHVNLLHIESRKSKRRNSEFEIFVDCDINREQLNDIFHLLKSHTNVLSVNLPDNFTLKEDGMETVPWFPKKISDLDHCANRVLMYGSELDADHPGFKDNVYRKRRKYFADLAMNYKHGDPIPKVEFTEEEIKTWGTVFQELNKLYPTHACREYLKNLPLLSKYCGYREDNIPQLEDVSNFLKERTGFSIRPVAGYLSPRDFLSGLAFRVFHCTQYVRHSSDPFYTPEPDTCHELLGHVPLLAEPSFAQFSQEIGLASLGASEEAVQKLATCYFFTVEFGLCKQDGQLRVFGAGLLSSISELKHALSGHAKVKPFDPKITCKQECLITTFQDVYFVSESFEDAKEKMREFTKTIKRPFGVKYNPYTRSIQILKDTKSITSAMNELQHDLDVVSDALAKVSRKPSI
As to the kind of experiment: TPH1 in vitro inhibition assay (kinetic fluorescence). The format is biochemical. Conditions: TPH1 Range (TPH1 inhibition IC50). The method, boiled down:
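Final mix: 15 nM MBP-TPH1, 30 μM Trp, 36 μM 6-methyltetrahydropterin, 25 μM ferrous ammonium sulfate, 50 mM MES pH 7.1, 1% DMSO, room temperature.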
Take `Nc1nc(O[C@H](c2ccc(Cl)cc2-c2cccc(Cl)c2)C(F)(F)F)cc(N2CCC3(CC2)CN[C@H](C(=O)O)C3)n1` [Example 34a, (S)-8-(2-amino-6-((R)-1-(3′,5-dichloro-[1,1′-biphenyl]-2-yl)-2,2,2-trifluoroethoxy)pyrimidin-4-yl)-2,8-diazaspiro[4.5]decane-3-carboxylic acid]: the negative logarithm of the IC50 (pIC50) was above 7.30.

On to `NC(=O)c1cccc(-c2cc(Cl)ccc2[C@@H](Oc2cc(N3CCC4(CC3)CN[C@H](C(=O)O)C4)nc(N)n2)C(F)(F)F)c1` [Example 34ac, (S)-8-(2-amino-6-((R)-1-(3′-carbamoyl-5-chloro-[1,1′-biphenyl]-2-yl)-2,2,2-trifluoroethoxy)pyrimidin-4-yl)-2,8-diazaspiro[4.5]decane-3-carboxylic acid], for which the pIC50 was above 7.30. Turning to `CS(=O)(=O)c1ccc(-c2cc(Cl)ccc2[C@@H](Oc2cc(N3CCC4(CC3)CN[C@H](C(=O)O)C4)nc(N)n2)C(F)(F)F)cc1` [Example 34ad, (S)-8-(2-amino-6-((R)-1-(5-chloro-4′-(methylsulfonyl)-[1,1′-biphenyl]-2-yl)-2,2,2-trifluoroethoxy)pyrimidin-4-yl)-2,8-diazaspiro[4.5]decane-3-carboxylic acid], the pIC50 was 5.52 to 6.52. Regarding `Nc1nc(O[C@H](c2ccc(Cl)cc2-c2ccc(S(N)(=O)=O)cc2)C(F)(F)F)cc(N2CCC3(CC2)CN[C@H](C(=O)O)C3)n1` [Example 34ae, (S)-8-(2-amino-6-((R)-1-(5-chloro-4′-sulfamoyl-[1,1′-biphenyl]-2-yl)-2,2,2-trifluoroethoxy)pyrimidin-4-yl)-2,8-diazaspiro[4.5]decane-3-carboxylic acid], the negative-log IC50 (pIC50) was 5.52 to 6.52.

Take `CCOc1ccc(-c2cc(Cl)ccc2[C@@H](Oc2cc(N3CCC4(CC3)CN[C@H](C(=O)O)C4)nc(N)n2)C(F)(F)F)cc1Cl` [Example 34ai, (S)-8-(2-amino-6-((R)-1-(3′,5-dichloro-4′-ethoxy-[1,1′-biphenyl]-2-yl)-2,2,2-trifluoroethoxy)pyrimidin-4-yl)-2,8-diazaspiro[4.5]decane-3-carboxylic acid]: the pIC50 is 6.52 to 7.30. Same read-out and setting: the value for `Nc1nc(O[C@H](c2ccc(Cl)cc2-c2cc(F)cc(Cl)c2)C(F)(F)F)cc(N2CCC3(CC2)CN[C@H](C(=O)O)C3)n1` [Example 34an, (S)-8-(2-amino-6-((R)-1-(3′,5-dichloro-5′-fluoro-[1,1′-biphenyl]-2-yl)-2,2,2-trifluoroethoxy)pyrimidin-4-yl)-2,8-diazaspiro[4.5]decane-3-carboxylic acid] was above 7.30; that for `CC(C)(C)c1cccc(-c2cc(Cl)ccc2[C@@H](Oc2cc(N3CCC4(CC3)CN[C@H](C(=O)O)C4)nc(N)n2)C(F)(F)F)c1` [Example 34ao, (S)-8-(2-amino-6-((R)-1-(3′-(tert-butyl)-5-chloro-[1,1′-biphenyl]-2-yl)-2,2,2-trifluoroethoxy)pyrimidin-4-yl)-2,8-diazaspiro[4.5]decane-3-carboxylic acid] was above 7.30.

Staying with this assay, now noted: read-out: TPH1 Range (TPH1 inhibition IC50).
For the compound `Cc1ccn(-c2cc(-c3ccc(OC(F)(F)F)cc3)ccc2[C@@H](Oc2cc(N3CCC4(CC3)CN[C@H](C(=O)O)C4)nc(C)n2)C(F)(F)F)n1` [Example 29t, (S)-8-(2-methyl-6-((R)-2,2,2-trifluoro-1-(3-(3-methyl-1H-pyrazol-1-yl)-4′-(trifluoromethoxy)-[1,1′-biphenyl]-4-yl)ethoxy)pyrimidin-4-yl)-2,8-diazaspiro[4.5]decane-3-carboxylic acid], the pIC50 is 6.52 to 7.30. Still for that read-out and setting: the value for `COC(=O)c1cccc(-c2ccc([C@@H](Oc3cc(N4CCC5(CC4)CN[C@H](C(=O)O)C5)nc(C)n3)C(F)(F)F)c(-n3ccc(C)n3)c2)c1` [Example 29u, (S)-8-(2-methyl-6-((R)-2,2,2-trifluoro-1-(3′-(methoxycarbonyl)-3-(3-methyl-1H-pyrazol-1-yl)-[1,1′-biphenyl]-4-yl)ethoxy)pyrimidin-4-yl)-2,8-diazaspiro[4.5]decane-3-carboxylic acid] was 6.52 to 7.30; that for `Nc1nc(O[C@H](c2ccc(Cl)cc2N2CCCC2=O)C(F)(F)F)cc(N2CCC3(CC2)CN[C@H](C(=O)O)C3)n1` [Example 33, (S)-8-(2-amino-6-((R)-1-(4-chloro-2-(2-oxopyrrolidin-1-yl)phenyl)-2,2,2-trifluoroethoxy)pyrimidin-4-yl)-2,8-diazaspiro[4.5]decane-3-carboxylic acid] was 6.52 to 7.30. In the case of `C=CC(=O)NCc1cccc(-c2cc(Cl)ccc2[C@@H](Oc2cc(N3CCC4(CC3)CN[C@H](C(=O)O)C4)nc(N)n2)C(F)(F)F)c1` [Example 34aa, (S)-8-(6-((R)-1-(3′-(acrylamidomethyl)-5-chloro-[1,1′-biphenyl]-2-yl)-2,2,2-trifluoroethoxy)-2-aminopyrimidin-4-yl)-2,8-diazaspiro[4.5]decane-3-carboxylic acid], the pIC50 is above 7.30. As for `Nc1nc(O[C@H](c2ccc(Cl)cc2-c2cccc(C(=O)O)c2)C(F)(F)F)cc(N2CCC3(CC2)CN[C@H](C(=O)O)C3)n1` [Example 34ab, (S)-8-(2-amino-6-((R)-1-(3′-carboxy-5-chloro-[1,1′-biphenyl]-2-yl)-2,2,2-trifluoroethoxy)pyrimidin-4-yl)-2,8-diazaspiro[4.5]decane-3-carboxylic acid], the pIC50 is 5.52 to 6.52.

Consider `Nc1nc(O[C@H](c2ccc(Cl)cc2-c2ccc(Cl)c(F)c2)C(F)(F)F)cc(N2CCC3(CC2)CN[C@H](C(=O)O)C3)n1` [Example 34af, (S)-8-(2-amino-6-((R)-1-(4′,5-dichloro-3′-fluoro-[1,1′-biphenyl]-2-yl)-2,2,2-trifluoroethoxy)pyrimidin-4-yl)-2,8-diazaspiro[4.5]decane-3-carboxylic acid], for which the negative logarithm of the IC50 (pIC50) is above 7.30. Same read-out and setting: the value for `CC(C)Oc1cccc(-c2cc(Cl)ccc2[C@@H](Oc2cc(N3CCC4(CC3)CN[C@H](C(=O)O)C4)nc(N)n2)C(F)(F)F)c1` [Example 34ag, (S)-8-(2-amino-6-((R)-1-(5-chloro-3′-isopropoxy-[1,1′-biphenyl]-2-yl)-2,2,2-trifluoroethoxy)pyrimidin-4-yl)-2,8-diazaspiro[4.5]decane-3-carboxylic acid] was above 7.30.

As to `CCOc1cccc(-c2cc(Cl)ccc2[C@@H](Oc2cc(N3CCC4(CC3)CN[C@H](C(=O)O)C4)nc(N)n2)C(F)(F)F)c1` [Example 34ah, (S)-8-(2-amino-6-((R)-1-(5-chloro-3′-ethoxy-[1,1′-biphenyl]-2-yl)-2,2,2-trifluoroethoxy)pyrimidin-4-yl)-2,8-diazaspiro[4.5]decane-3-carboxylic acid], the pIC50 was above 7.30. In the case of `Cc1ccc(-c2cc(Cl)ccc2[C@@H](Oc2cc(N3CCC4(CC3)CN[C@H](C(=O)O)C4)nc(N)n2)C(F)(F)F)cc1Cl` [Example 34aj, (S)-8-(2-amino-6-((R)-1-(3′,5-dichloro-4′-methyl-[1,1′-biphenyl]-2-yl)-2,2,2-trifluoroethoxy)pyrimidin-4-yl)-2,8-diazaspiro[4.5]decane-3-carboxylic acid], the pIC50 is 6.52 to 7.30.

Turning to `CC(C)Oc1ccc(-c2cc(Cl)ccc2[C@@H](Oc2cc(N3CCC4(CC3)CN[C@H](C(=O)O)C4)nc(N)n2)C(F)(F)F)cc1Cl` [Example 34ak, (S)-8-(2-amino-6-((R)-1-(3′,5-dichloro-4′-isopropoxy-[1,1′-biphenyl]-2-yl)-2,2,2-trifluoroethoxy)pyrimidin-4-yl)-2,8-diazaspiro[4.5]decane-3-carboxylic acid], the negative logarithm of the IC50 (pIC50) is 6.52 to 7.30. Regarding `CC(C)Oc1ccc(-c2cc(Cl)ccc2[C@@H](Oc2cc(N3CCC4(CC3)CN[C@H](C(=O)O)C4)nc(N)n2)C(F)(F)F)cc1F` [Example 34al, (S)-8-(2-amino-6-((R)-1-(5-chloro-3′-fluoro-4′-isopropoxy-[1,1′-biphenyl]-2-yl)-2,2,2-trifluoroethoxy)pyrimidin-4-yl)-2,8-diazaspiro[4.5]decane-3-carboxylic acid], the pIC50 is 5.00 to 5.52.

For the compound `Nc1nc(O[C@H](c2ccc(Cl)cc2-c2ccc(Cl)c(C(F)(F)F)c2)C(F)(F)F)cc(N2CCC3(CC2)CN[C@H](C(=O)O)C3)n1` [Example 34am, (S)-8-(2-amino-6-((R)-1-(4′,5-dichloro-3′-(trifluoromethyl)-[1,1′-biphenyl]-2-yl)-2,2,2-trifluoroethoxy)pyrimidin-4-yl)-2,8-diazaspiro[4.5]decane-3-carboxylic acid], the pIC50 was 6.52 to 7.30.

Regarding `Nc1nc(O[C@H](c2ccc(Cl)cc2-c2cc(Cl)cc(C(F)(F)F)c2)C(F)(F)F)cc(N2CCC3(CC2)CN[C@H](C(=O)O)C3)n1` [Example 34ap, (S)-8-(2-amino-6-((R)-1-(3′,5-dichloro-5′-(trifluoromethyl)-[1,1′-biphenyl]-2-yl)-2,2,2-trifluoroethoxy)pyrimidin-4-yl)-2,8-diazaspiro[4.5]decane-3-carboxylic acid], the pIC50 was 6.52 to 7.30. Still for that read-out and setting: the value for `Nc1nc(O[C@H](c2ccc(Cl)cc2-c2cc(F)cc(C(F)(F)F)c2)C(F)(F)F)cc(N2CCC3(CC2)CN[C@H](C(=O)O)C3)n1` [Example 34aq, (S)-8-(2-amino-6-((R)-1-(5-chloro-3′-fluoro-5′-(trifluoromethyl)-[1,1′-biphenyl]-2-yl)-2,2,2-trifluoroethoxy)pyrimidin-4-yl)-2,8-diazaspiro[4.5]decane-3-carboxylic acid] was above 7.30.

Broadly, the pIC50 is the IC50 on a negative log10 scale, so that one unit is a factor of ten.
